{"source": "PubChem BioAssay AID1918931", "about": "(Molecular Pharmacology Branch, DTP, NCI, 2023);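 further: spheroids exposed to agents for 7 days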;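 on viability, T/C: 100% = DMSO vehicle control viability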", "test_system": "138582-337-R-J1-PDC complex spheroid viability", "test": "Anticancer human tumor 138582-337-R-J1-PDC patient-derived Merkel cell tumor cell line growth inhibition", "details": "for IC50: curve of first compound; for viability, T/C: stronger effect = lower value", "summary_of_the_method": "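Multicellular complex spheroids of tumor cells with human endothelial cells (HUVEC) and mesenchymal stem cells; the LSD1 inhibitor iadademstat was combined with standard-of-care or investigational agents. Top concentration at or near clinical Cmax, half-log dilutions; final DMSO ≤0.25%.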"}
{"smiles": "Nc1ncn(C2CC(O)C(CO)S2)c(=O)n1", "note": "(stereo not given) + NC1CC1c1ccc(-c2cccc(O)c2)cc1", "values": [{"measurement": "IC50", "setting": "second compound 0.1 µM", "result": "> 300", "unit": "nM"}, {"measurement": "IC50", "setting": "second compound 0.316 µM", "result": "> 300", "unit": "nM"}, {"measurement": "IC50", "setting": "second compound 1 µM", "result": "> 300", "unit": "nM"}, {"measurement": "IC50", "setting": "second compound 3.16 µM", "result": "> 300", "unit": "nM"}, {"measurement": "IC50", "setting": "second compound 10 µM", "result": "> 300", "unit": "nM"}, {"measurement": "viability, T/C", "setting": "second compound 0.1 µM, first compound 0.000949 µM", "result": 79.6, "unit": "%"}, {"measurement": "viability, T/C", "setting": "second compound 0.1 µM, first compound 0.003 µM", "result": 83.8, "unit": "%"}, {"measurement": "viability, T/C", "setting": "second compound 0.1 µM, first compound 0.00949 µM", "result": 69.2, "unit": "%"}, {"measurement": "viability, T/C", "setting": "second compound 0.1 µM, first compound 0.03 µM", "result": 73, "unit": "%"}, {"measurement": "viability, T/C", "setting": "second compound 0.1 µM, first compound 0.0949 µM", "result": 77.1, "unit": "%"}, {"measurement": "viability, T/C", "setting": "second compound 0.1 µM, first compound 0.3 µM", "result": 69.3, "unit": "%"}, {"measurement": "viability, T/C", "setting": "second compound 0.316 µM, first compound 0.000949 µM", "result": 68.5, "unit": "%"}, {"measurement": "viability, T/C", "setting": "second compound 0.316 µM, first compound 0.003 µM", "result": 80.1, "unit": "%"}, {"measurement": "viability, T/C", "setting": "second compound 0.316 µM, first compound 0.00949 µM", "result": 77.9, "unit": "%"}, {"measurement": "viability, T/C", "setting": "second compound 0.316 µM, first compound 0.03 µM", "result": 76.6, "unit": "%"}, {"measurement": "viability, T/C", "setting": "second compound 0.316 µM, first compound 0.0949 µM", "result": 79.1, "unit": "%"}, {"measurement": "viability, T/C", "setting": "second compound 0.316 µM, first compound 0.3 µM", "result": 78.3, "unit": "%"}, {"measurement": "viability, T/C", "setting": "second compound 1 µM, first compound 0.000949 µM", "result": 71.8, "unit": "%"}, {"measurement": "viability, T/C", "setting": "second compound 1 µM, first compound 0.003 µM", "result": 70.8, "unit": "%"}, {"measurement": "viability, T/C", "setting": "second compound 1 µM, first compound 0.00949 µM", "result": 70.8, "unit": "%"}, {"measurement": "viability, T/C", "setting": "second compound 1 µM, first compound 0.03 µM", "result": 68, "unit": "%"}, {"measurement": "viability, T/C", "setting": "second compound 1 µM, first compound 0.0949 µM", "result": 76.6, "unit": "%"}, {"measurement": "viability, T/C", "setting": "second compound 1 µM, first compound 0.3 µM", "result": 87.5, "unit": "%"}, {"measurement": "viability, T/C", "setting": "second compound 3.16 µM, first compound 0.000949 µM", "result": 84.5, "unit": "%"}, {"measurement": "viability, T/C", "setting": "second compound 3.16 µM, first compound 0.003 µM", "result": 78.9, "unit": "%"}, {"measurement": "viability, T/C", "setting": "second compound 3.16 µM, first compound 0.00949 µM", "result": 84.9, "unit": "%"}, {"measurement": "viability, T/C", "setting": "second compound 3.16 µM, first compound 0.03 µM", "result": 71.8, "unit": "%"}, {"measurement": "viability, T/C", "setting": "second compound 3.16 µM, first compound 0.0949 µM", "result": 77.8, "unit": "%"}, {"measurement": "viability, T/C", "setting": "second compound 3.16 µM, first compound 0.3 µM", "result": 68.9, "unit": "%"}, {"measurement": "viability, T/C", "setting": "second compound 10 µM, first compound 0.000949 µM", "result": 74.3, "unit": "%"}, {"measurement": "viability, T/C", "setting": "second compound 10 µM, first compound 0.003 µM", "result": 82, "unit": "%"}, {"measurement": "viability, T/C", "setting": "second compound 10 µM, first compound 0.00949 µM", "result": 88.5, "unit": "%"}, {"measurement": "viability, T/C", "setting": "second compound 10 µM, first compound 0.03 µM", "result": 89.7, "unit": "%"}, {"measurement": "viability, T/C", "setting": "second compound 10 µM, first compound 0.0949 µM", "result": 93.4, "unit": "%"}, {"measurement": "viability, T/C", "setting": "second compound 10 µM, first compound 0.3 µM", "result": 89.9, "unit": "%"}]}
{"smiles": "COc1cc(Nc2ncc3c(n2)-c2ccc(Cl)cc2C(c2c(F)cccc2OC)=NC3)ccc1C(=O)O", "note": "+ NC1CC1c1ccc(-c2cccc(O)c2)cc1", "values": [{"measurement": "IC50", "setting": "second compound 0.1 µM", "result": 355, "unit": "nM"}, {"measurement": "IC50", "setting": "second compound 0.316 µM", "result": 210, "unit": "nM"}, {"measurement": "IC50", "setting": "second compound 1 µM", "result": 222, "unit": "nM"}, {"measurement": "IC50", "setting": "second compound 3.16 µM", "result": 183, "unit": "nM"}, {"measurement": "IC50", "setting": "second compound 10 µM", "result": 463, "unit": "nM"}, {"measurement": "viability, T/C", "setting": "second compound 0.1 µM, first compound 0.00316 µM", "result": 66.5, "unit": "%"}, {"measurement": "viability, T/C", "setting": "second compound 0.1 µM, first compound 0.01 µM", "result": 76.5, "unit": "%"}, {"measurement": "viability, T/C", "setting": "second compound 0.1 µM, first compound 0.0316 µM", "result": 61.4, "unit": "%"}, {"measurement": "viability, T/C", "setting": "second compound 0.1 µM, first compound 0.1 µM", "result": 66.4, "unit": "%"}, {"measurement": "viability, T/C", "setting": "second compound 0.1 µM, first compound 0.316 µM", "result": 51.9, "unit": "%"}, {"measurement": "viability, T/C", "setting": "second compound 0.1 µM, first compound 1 µM", "result": 28.4, "unit": "%"}, {"measurement": "viability, T/C", "setting": "second compound 0.316 µM, first compound 0.00316 µM", "result": 64.7, "unit": "%"}, {"measurement": "viability, T/C", "setting": "second compound 0.316 µM, first compound 0.01 µM", "result": 69.4, "unit": "%"}, {"measurement": "viability, T/C", "setting": "second compound 0.316 µM, first compound 0.0316 µM", "result": 60.1, "unit": "%"}, {"measurement": "viability, T/C", "setting": "second compound 0.316 µM, first compound 0.1 µM", "result": 64.3, "unit": "%"}, {"measurement": "viability, T/C", "setting": "second compound 0.316 µM, first compound 0.316 µM", "result": 42.1, "unit": "%"}, {"measurement": "viability, T/C", "setting": "second compound 0.316 µM, first compound 1 µM", "result": 30.6, "unit": "%"}, {"measurement": "viability, T/C", "setting": "second compound 1 µM, first compound 0.00316 µM", "result": 70.8, "unit": "%"}, {"measurement": "viability, T/C", "setting": "second compound 1 µM, first compound 0.01 µM", "result": 79.4, "unit": "%"}, {"measurement": "viability, T/C", "setting": "second compound 1 µM, first compound 0.0316 µM", "result": 64.9, "unit": "%"}, {"measurement": "viability, T/C", "setting": "second compound 1 µM, first compound 0.1 µM", "result": 59, "unit": "%"}, {"measurement": "viability, T/C", "setting": "second compound 1 µM, first compound 0.316 µM", "result": 46.7, "unit": "%"}, {"measurement": "viability, T/C", "setting": "second compound 1 µM, first compound 1 µM", "result": 33.2, "unit": "%"}, {"measurement": "viability, T/C", "setting": "second compound 3.16 µM, first compound 0.00316 µM", "result": 70.4, "unit": "%"}, {"measurement": "viability, T/C", "setting": "second compound 3.16 µM, first compound 0.01 µM", "result": 89.8, "unit": "%"}, {"measurement": "viability, T/C", "setting": "second compound 3.16 µM, first compound 0.0316 µM", "result": 82.5, "unit": "%"}, {"measurement": "viability, T/C", "setting": "second compound 3.16 µM, first compound 0.1 µM", "result": 60.7, "unit": "%"}, {"measurement": "viability, T/C", "setting": "second compound 3.16 µM, first compound 0.316 µM", "result": 41.9, "unit": "%"}, {"measurement": "viability, T/C", "setting": "second compound 3.16 µM, first compound 1 µM", "result": 38.8, "unit": "%"}, {"measurement": "viability, T/C", "setting": "second compound 10 µM, first compound 0.00316 µM", "result": 82.6, "unit": "%"}, {"measurement": "viability, T/C", "setting": "second compound 10 µM, first compound 0.01 µM", "result": 97, "unit": "%"}, {"measurement": "viability, T/C", "setting": "second compound 10 µM, first compound 0.0316 µM", "result": 80.2, "unit": "%"}, {"measurement": "viability, T/C", "setting": "second compound 10 µM, first compound 0.1 µM", "result": 80.9, "unit": "%"}, {"measurement": "viability, T/C", "setting": "second compound 10 µM, first compound 0.316 µM", "result": 57.2, "unit": "%"}, {"measurement": "viability, T/C", "setting": "second compound 10 µM, first compound 1 µM", "result": 34.8, "unit": "%"}]}
